Patent publication US12180207B2 (ARRAY BIOPHARMA INC., priority 2018, dated 2024)

Experiments:
[1] = molecular target: FGFR3 (SEQ ID NO: 5, amino acids 449-759) (Homo sapiens (Human), UniProt P22607); assay: LC/MS FGFR3 kobs assay (covalent protein modification); format: binding; conditions: 500 nM FGFR3, 3 μM compound
Procedure, shortened: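 Timed reactions were stopped with 0.4% formic acid, and covalent adduct formation was measured by LC/MS on a Q-TOF with deconvolution of protein masses. Modified signal was normalized to DMSO-control unmodified protein at each time point; percent unmodified protein was fit to exponential decay to give kobs.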

[2] = molecular target: phosphorylated FGFR3 (SEQ ID NO: 5, amino acids 449 to 759) (Homo sapiens (Human), UniProt P22607); assay: FGFR enzyme binding assay (HTRF tracer displacement), FGFR3; conditions: 5 nM phosphorylated FGFR3, average of multiple determinations if made
phosphorylated FGFR3 (SEQ ID NO: 5, amino acids 449 to 759), sequence (P22607 449-759): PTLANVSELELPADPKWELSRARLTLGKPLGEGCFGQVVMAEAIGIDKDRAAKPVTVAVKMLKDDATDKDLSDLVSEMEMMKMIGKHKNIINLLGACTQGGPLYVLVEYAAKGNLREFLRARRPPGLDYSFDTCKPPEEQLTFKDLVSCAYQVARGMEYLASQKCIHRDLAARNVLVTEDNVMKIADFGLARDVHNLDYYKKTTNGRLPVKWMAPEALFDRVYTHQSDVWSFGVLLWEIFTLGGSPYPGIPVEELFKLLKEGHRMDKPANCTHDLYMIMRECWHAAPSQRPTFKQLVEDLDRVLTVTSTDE
Procedure, shortened: (§1)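 Compounds were tested for displacement of a tracer from human FGFR kinase in a time-resolved FRET binding format. After 60 minutes at 22° C, signal was read at two wavelengths and converted to percent of control, normalised between untreated wells and 1 μM reference inhibitor.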

[3] = molecular target: T1, HEK-293 cells transfected with dox-inducible human wild type FGFR3 (Homo sapiens (Human), UniProt P22607); assay: FGFR3 pERK cell assay; format: cell-based; conditions: HEK-293 dox-inducible FGFR3, 1 hour compound, 100 ng/ml FGF-acidic; maximum concentration 5 μM
T1 sequence (P22607 23-806): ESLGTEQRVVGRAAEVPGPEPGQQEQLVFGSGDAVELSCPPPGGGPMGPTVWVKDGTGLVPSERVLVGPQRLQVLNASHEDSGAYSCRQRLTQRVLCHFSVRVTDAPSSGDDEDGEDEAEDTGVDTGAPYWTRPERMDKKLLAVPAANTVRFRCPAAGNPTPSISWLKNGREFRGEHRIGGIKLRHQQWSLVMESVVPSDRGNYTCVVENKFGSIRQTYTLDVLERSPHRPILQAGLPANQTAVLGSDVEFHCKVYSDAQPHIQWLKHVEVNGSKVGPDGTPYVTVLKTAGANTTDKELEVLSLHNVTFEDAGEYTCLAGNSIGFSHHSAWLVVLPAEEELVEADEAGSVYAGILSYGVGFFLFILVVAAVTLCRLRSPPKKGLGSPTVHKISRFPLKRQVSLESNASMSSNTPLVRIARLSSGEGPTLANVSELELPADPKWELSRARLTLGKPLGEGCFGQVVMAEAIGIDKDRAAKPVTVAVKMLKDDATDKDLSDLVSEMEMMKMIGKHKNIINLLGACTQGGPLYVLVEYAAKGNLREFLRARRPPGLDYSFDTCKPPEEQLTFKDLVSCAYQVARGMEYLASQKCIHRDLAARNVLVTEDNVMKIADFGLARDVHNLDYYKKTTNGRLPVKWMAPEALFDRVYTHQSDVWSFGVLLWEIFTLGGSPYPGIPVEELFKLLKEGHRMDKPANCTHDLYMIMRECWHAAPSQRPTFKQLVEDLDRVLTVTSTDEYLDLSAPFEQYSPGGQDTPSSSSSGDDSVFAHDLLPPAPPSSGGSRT
Procedure, shortened: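 Doxycycline-induced cells preincubated 1 h at 37 °C with compound (1:3 dilutions, top 5 μM final), then stimulated 5 min with 100 ng/ml FGF-acidic. Lysate phospho-ERK1/2 measured by MSD sandwich assay; IC50 at 50 POC from 4-parameter fit, normalised to no-compound and control-compound wells.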

[4] = molecular target: T1, HEK-293 cells transfected with dox-inducible human wild type FGFR3; assay: FGFR3 pFGFR cell assay (ELISA); format: cell-based; conditions: HEK-293 dox-inducible FGFR3, 1 hour compound, 100 ng/ml FGF-acidic
Procedure, shortened: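 Doxycycline-induced (1 μg/ml) HEK-293 cells expressing wild-type human FGFR3, treated 1 h with compound (1:3 series, top final 5 μM), then stimulated 5 min with 100 ng/ml FGF-acidic. Phospho-FGFR3 measured by ELISA (total FGFR3 capture, phosphotyrosine detection, OD 450 nm); IC50 from 4-parameter fit of POC values.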

dephosphorylated FGFR2 = dephosphorylated FGFR2 (Homo sapiens (Human), UniProt P21802); assay: FGFR enzyme binding assay (HTRF tracer displacement), FGFR2; conditions: 5 nM dephosphorylated FGFR2, average of multiple determinations if made
dephosphorylated FGFR2, sequence (P21802 22-821): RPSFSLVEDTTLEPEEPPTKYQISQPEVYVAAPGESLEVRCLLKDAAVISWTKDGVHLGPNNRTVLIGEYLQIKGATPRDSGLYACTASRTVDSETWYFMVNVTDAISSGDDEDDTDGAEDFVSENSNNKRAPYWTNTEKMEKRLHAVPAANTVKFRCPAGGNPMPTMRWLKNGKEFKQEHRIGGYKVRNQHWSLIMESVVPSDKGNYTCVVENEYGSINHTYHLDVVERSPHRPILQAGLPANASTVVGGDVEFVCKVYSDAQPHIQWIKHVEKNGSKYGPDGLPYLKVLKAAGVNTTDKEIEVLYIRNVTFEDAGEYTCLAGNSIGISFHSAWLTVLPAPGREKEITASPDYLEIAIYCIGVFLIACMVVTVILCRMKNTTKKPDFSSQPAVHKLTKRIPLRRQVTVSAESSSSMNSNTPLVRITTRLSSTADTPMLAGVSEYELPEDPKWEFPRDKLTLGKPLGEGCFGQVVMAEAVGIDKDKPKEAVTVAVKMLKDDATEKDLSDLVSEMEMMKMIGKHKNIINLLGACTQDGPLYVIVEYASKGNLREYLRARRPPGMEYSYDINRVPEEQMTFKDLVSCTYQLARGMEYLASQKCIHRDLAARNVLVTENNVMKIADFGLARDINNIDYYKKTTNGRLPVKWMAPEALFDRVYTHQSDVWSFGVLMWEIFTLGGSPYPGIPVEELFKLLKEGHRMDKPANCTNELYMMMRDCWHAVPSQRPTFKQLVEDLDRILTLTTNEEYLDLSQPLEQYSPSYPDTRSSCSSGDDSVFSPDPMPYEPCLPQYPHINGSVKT
Procedure, shortened: as §1

[5] = molecular target: HEK-293 cells transfected with dox-inducible human wild type FGFR1 (Homo sapiens (Human), UniProt P11362); assay: FGFR1 pERK cell assay; format: cell-based; conditions: HEK-293 dox-inducible FGFR1, 1 hour compound, 100 ng/ml FGF-acidic; maximum concentration 5 μM
HEK-293 cells transfected with dox-inducible human wild type FGFR1, sequence (P11362 22-822): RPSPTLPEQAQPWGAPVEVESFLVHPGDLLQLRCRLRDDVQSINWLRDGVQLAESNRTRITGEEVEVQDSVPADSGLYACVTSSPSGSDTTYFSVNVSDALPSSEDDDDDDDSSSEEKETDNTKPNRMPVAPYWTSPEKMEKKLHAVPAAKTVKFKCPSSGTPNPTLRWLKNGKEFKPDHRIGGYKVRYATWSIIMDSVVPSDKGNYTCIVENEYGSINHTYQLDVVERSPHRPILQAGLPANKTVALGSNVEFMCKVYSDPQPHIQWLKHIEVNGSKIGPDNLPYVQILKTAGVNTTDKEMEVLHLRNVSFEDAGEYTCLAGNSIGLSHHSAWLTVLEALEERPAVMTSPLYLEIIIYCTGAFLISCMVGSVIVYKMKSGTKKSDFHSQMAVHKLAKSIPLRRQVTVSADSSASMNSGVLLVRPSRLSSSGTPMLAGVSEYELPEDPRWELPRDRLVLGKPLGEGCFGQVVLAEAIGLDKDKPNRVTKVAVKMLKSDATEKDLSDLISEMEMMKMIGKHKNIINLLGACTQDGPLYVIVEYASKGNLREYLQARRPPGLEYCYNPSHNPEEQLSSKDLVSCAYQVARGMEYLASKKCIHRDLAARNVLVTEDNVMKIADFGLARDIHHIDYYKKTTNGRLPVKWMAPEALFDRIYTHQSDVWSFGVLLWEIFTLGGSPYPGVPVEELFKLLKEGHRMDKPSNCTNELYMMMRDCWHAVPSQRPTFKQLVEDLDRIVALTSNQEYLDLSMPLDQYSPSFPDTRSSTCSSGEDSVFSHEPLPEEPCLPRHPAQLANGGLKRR
Procedure, shortened: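 In HEK-293 cells with dox-induced human wild-type FGFR1, compounds (1:3 dilutions, top 5 μM final) were applied 1 h at 37°C before 5 min stimulation with 100 ng/ml FGF-acidic. Phospho-ERK1/2 measured by MSD sandwich immunoassay; IC50 from 4-parameter fit of POC versus vehicle and control compound.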

FGFR3 (SEQ ID NO: 5, amino acids 449-759), sequence (P22607 449-759): as the sequence (P22607 449-759) above

| SMILES | FGFR3 Enz kobs [1] [min⁻¹] | IC50 [2] [µM] | IC50 [3] [µM] | IC50 [4] [µM] | IC50 (dephosphorylated FGFR2) [µM] | IC50 [5] [µM] |
| --- | --- | --- | --- | --- | --- | --- |
| C=CC(=O)N1CC[C@@H](C(=O)N2CCC(n3ncc(-c4cc(OC)c5c(C#N)cnn5c4)c3C)CC2)C1 [Example 83, (R)-6-(1-(1-(1-acryloylpyrrolidine-3-carbonyl)piperidin-4-yl)-5-methyl-1H-pyrazol-4-yl)-4-methoxypyrazolo[1,5-a]pyridine-3-carbonitrile] | 0.00547 | 0.014 | 0.549 | 0.546 | 0.017 | ≥ 5 |
| C=CC(=O)N1CC(C(=O)N2CCC(n3ncc(-c4cc(OC)c5c(C#N)cnn5c4)c3C)CC2)C1 [Example 84, 6-(1-(1-(1-acryloylazetidine-3-carbonyl)piperidin-4-yl)-5-methyl-1H-pyrazol-4-yl)-4-methoxypyrazolo[1,5-a]pyridine-3-carbonitrile] | 0.02394 | 0.022 | 0.108 | 0.077 | 0.021 | 2.53 |
| C=CC(=O)N1CC(OC)(C(=O)N2CCC(n3ncc(-c4cc(OC)c5c(C#N)cnn5c4)c3C)CC2)C1 [Example 88, 6-(1-(1-(1-acryloyl-3-methoxyazetidine-3-carbonyl)piperidin-4-yl)-5-methyl-1H-pyrazol-4-yl)-4-methoxypyrazolo[1,5-a]pyridine-3-carbonitrile] | 0.05581 | 0.003 | 0.034 |  | 0.012 | 0.605 |
| C=CC(=O)N1CC(CN2CCC(n3ncc(-c4cc(OC)c5c(C#N)cnn5c4)c3C)CC2)C1 [Example 89, 6-(1-(1-((1-acryloylazetidin-3-yl)methyl)piperidin-4-yl)-5-methyl-1H-pyrazol-4-yl)-4-methoxypyrazolo[1,5-a]pyridine-3-carbonitrile] | 0.02499 | 0.008 | 0.022 |  | 0.053 | 0.541 |
| C=CC(=O)N1CC(C)(CN2CCC(n3ncc(-c4cc(OC)c5c(C#N)cnn5c4)c3C)CC2)C1 [Example 90, 6-(1-(1-((1-acryloyl-3-methylazetidin-3-yl)methyl)piperidin-4-yl)-5-methyl-1H-pyrazol-4-yl)-4-methoxypyrazolo[1,5-a]pyridine-3-carbonitrile] | 0.01468 | 0.014 | 0.043 |  | 0.054 | 2.24 |

Continued by falling IC50 [2], values first:

| FGFR3 Enz kobs [1] [min⁻¹] | IC50 [2] [µM] | IC50 [3] [µM] | IC50 [4] [µM] | IC50 (dephosphorylated FGFR2) [µM] | IC50 [5] [µM] | SMILES |
| --- | --- | --- | --- | --- | --- | --- |
| 0.07092 | 0.003 | 0.008 | 0.012 | 0.044 | 0.059 | C=CC(=O)N1CC(F)(C(=O)N2CCC(n3cc(-c4cc(OC)c5c(C#N)cnn5c4)cn3)CC2)C1 [Example 37, 6-(1-(1-(1-acryloyl-3-fluoroazetidine-3-carbonyl)piperidin-4-yl)-1H-pyrazol-4-yl)-4-methoxypyrazolo[1,5-a]pyridine-3-carbonitrile] |
| 0.1061 | 0.003 | 0.019 | 0.016 | 0.036 | 0.462 | C=CC(=O)N1CC(F)(C(=O)N2CCC(n3ncc(-c4cc(OC)c5c(C#N)cnn5c4)c3C)CC2)C1 [Example 85, 6-(1-(1-(1-acryloyl-3-fluoroazetidine-3-carbonyl)piperidin-4-yl)-5-methyl-1H-pyrazol-4-yl)-4-methoxypyrazolo[1,5-a]pyridine-3-carbonitrile] |
| 0.04322 | 0.002 | 0.015 |  | 0.019 | 0.341 | C=CC(=O)N1CC(CN2CCC(n3ncc(-c4cc(OC)c5c(C#N)cnn5c4)c3C)CC2)(OC)C1 [Example 91, 6-(1-(1-((1-acryloyl-3-methoxyazetidin-3-yl)methyl)piperidin-4-yl)-5-methyl-1H-pyrazol-4-yl)-4-methoxypyrazolo[1,5-a]pyridine-3-carbonitrile] |
